Reference: patent US20110152112A1, “DIAGNOSIS AND TREATMENT OF REVERSE CHOLESTEROL TRANSPORT DEFICIENCY-RELATED DISEASES” (Artery Therapeutics, Inc., priority 2009, published 2011)

Test system: J774 mouse macrophages (foam-cells)
Assay: Lipid efflux from J774 macrophage foam-cells to media (nascent HDL, LC-MS/MS)
Format: cell-based
Description: Study 1: Isolation of Nascent HDL from Incubations of Macrophage Foam-Cells with AT5261 and apoA-I.
A commercial transformed macrophage cell-line, J774 (mouse), was used to evaluate lipid efflux responses to peptide ATI-5261 and ApoA-I. Macrophage foam-cells were prepared and exposed to lipid-free AT5261 peptide and ApoA-I, respectively; Nascent HDL products resulting from stimulation of cholesterol efflux were isolated and concentrated from conditioned medium and analyzed for lipid content.
Near confluent T175-flasks (30 total) of J774 mouse macrophages were incubated (2 days) with 0.1 mg/ml acetylated LDL in […] culture medium containing 1% FBS, to produce foam-cells. On the day of the experiment, cell monolayers were rinsed (3 times) with 20 ml/flask of HBSS, incubated 1 h with 0.2% BSA in serum-free RPMI-1640 medium, then rinsed (3 times) with serum-free RPMI. Rinsed cells were then exposed (20 ml/flask) to either apoA-I (15 flasks) or ATI-5261 (15 flasks), at a final concentration of 10 microgram/ml serum free RPMI. Following 20 h, conditioned medium was recovered from flasks, pooled within groups, and filtered (0.2 mμ). The pooled medium (˜300 ml) was subsequently concentrated to 5 ml using an Amicon stir-cell (10 K membrane) and density adjusted to 1.21 g/ml with solid NaBr. Nascent HDL was isolated by ultracentrifugation (120K, 5 h 20 minutes, 10° C.) using a TL-120 centrifuge, samples dialyzed to saline (pH=7.4) and filter sterilized (0.2 nip, Nalgene capsules). Isolated material was used for detailed MS of PL subclasses, subjected to non-denaturing gradient gel electrophoresis and protein lipid ratios determined by 280 abs. and commercial kits.
Samples were kept at −80° C. until extraction. Samples were allowed to thaw on ice and a small aliquot of each sample was transferred into siliconized glass tubes followed by addition of ultrapure water. Samples were spiked with either a mixture of C17-based ceramide, sphingosine, sphingosine-1-phosphate and sphingomyelin (10 ng of each as internal sphingolipid standards) or ([…] of deuterated 16:0/16:0 PC as internal phosphatidylcholine standard). Samples were subjected to a Bligh and Dyer extraction (Bligh, E. G., Dryer, W. J. (1959) Can J Biochem physiol 37, 911-917). Lipid extracts were dried under stream of nitrogen at room temperature. The dried lipid extracts were then reconstituted in […] ethanol/formic acid (99.8/0.2) and kept at 4° C. until LC-MS/MS analysis. Extracts were injected onto a reverse phase C18 HPLC Column to separate and resolve the various lipids. Phosphatidylcholine and sphingolipids were eluted off the column and analyzed on a triple quadrupole mass spectrometer Sciex API 5500. The data acquisition was performed in a targeted MRM (MS/MS) mode using lipid specific precursor ion to product ion (or parent to daughter ion) mass transitions resulting in highly sensitive and specific quantitative data. The resulting data was processed using Applied Biosystems Analyst 1.4.2 software.

For “ApoA-I: apolipoprotein A-I, natures strongest effluxer, lipid-free comparator”, the “Cholesterol: Phospholipid molar ratio mobilized to media” value (10 microgram/ml, 20 h, (S.D.)) was 2.89 (S.D. 0.68), the “PC mobilized to media” value (LC-MS/MS, 10 microgram/ml, 20 h) was 19 and the “LPC mobilized to media” value (LC-MS/MS, n=2) was 40. The LPC media concentrations (all LPC) was “increased”, the “phospholipid (PL) media concentrations” value (all PL) was “increased” and the “type of LPC mobilized” value (values adjusted for the 2-fold difference) was “more of longer chain and more saturated LPCs”.
